From PMC12892976, “Alkylation-based optimization of antifungal FPPS inhibitors yields a potent, broad-spectrum lipophilic zoledronate derivative” (mBio, 2025)
Where two headings read alike, the source gives them in different places.

Legend:
[1] = system: Cryptococcus bacillisporus; assay: MIC broth microdilution (CLSI); format: cell-based; details: Cryptococcus bacillisporus NIH179
Description: (§1) Antifungal susceptibility was determined by broth microdilution according to the CLSI guidelines described in M27-Ed4 ([16]).

[2] = system: Candida albicans; assay: checkerboard drug interaction (FICI, MICc);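 as to all read-outs here: antifungal plus FPPS inhibitor combinations on Candida albicans tested by a simplified diagonal checkerboard screen, with FICI calculated under the Loewe additivity model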; format: cell-based; details: for INH MICc: C. albicans
Description: (§2) Drug interactions between antifungals and FPPS inhibitors were investigated using a simplified checkerboard diagonal screening method ([45]). […] FICIs were determined according to the Loewe additivity model ([17]).

[3] = system: Cryptococcus deuterogattii; assay: checkerboard drug interaction (FICI, MICc);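 as to all read-outs here: simplified diagonal checkerboard screen pairing antifungal drugs with FPPS inhibitors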; format: cell-based; details: for INH MICc: C. deuterogattii
Description: as §2

[4] = system: Aspergillus terreus; assay: MIC broth microdilution (CLSI); format: cell-based; details: Aspergillus terreus 75-16-089-2500
Description: as §1

[5] = system: Cryptococcus neoformans; assay: checkerboard drug interaction (FICI, MICc);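 as to all read-outs here: antifungal plus FPPS inhibitor pairs tested against Cryptococcus neoformans by simplified diagonal checkerboard screening, FICI computed under the Loewe additivity model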; format: cell-based; details: for INH MICc: C. neoformans
Description: as §2

[6] = system: Aspergillus felis; assay: MIC broth microdilution (CLSI); format: cell-based; details: Aspergillus felis IHE87256683D6
Description: as §1

[7] = system: Saccharomyces cerevisiae; assay: checkerboard drug interaction (FICI, MICc); format: cell-based; design: INH MICc / INH MICc (ITR:INH) / INH MICc (KET:INH) / INH MICc (FLC:INH): unit not given beside the values;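 also: simplified diagonal checkerboard screen pairing antifungals with FPPS inhibitors, FICI calculated under the Loewe additivity model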
[8] = system: Aspergillus flavus; assay: MIC/MFC broth microdilution (CLSI); details: ATCC204304
Description: (§3) Antifungal susceptibility was determined by broth microdilution according to the CLSI guidelines described in M27-Ed4 ([16]). […] MFC was determined by back-plating drug-treated cultures from MIC broths onto SDA plates. The MFC was defined as the lowest concentration from which no colonies could be cultured.

[9] = system: Aspergillus fumigatus; assay: MIC/MFC broth microdilution (CLSI); details: ATCC204305
Description: as §3

[10] = system: Aspergillus fumigatus; assay: checkerboard drug interaction (FICI, MICc); format: cell-based;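 also: simplified diagonal checkerboard screen pairing antifungals with FPPS inhibitors against Aspergillus fumigatus, with FICI calculated under the Loewe additivity model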
Description: as §2

[11] = system: eight fungal species; assay: MIC/MFC summary across the eight fungal species of Table 1; format: cell-based
Description: The antifungal activity of these compounds was evaluated according to CLSI guidelines ([16]).

[12] = system: Candida glabrata; assay: checkerboard drug interaction (FICI, MICc);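 as to all read-outs here: simplified diagonal checkerboard screen pairing antifungals with FPPS inhibitors, FICI calculated under the Loewe additivity model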; format: cell-based; details: for INH MICc: C. glabrata
Description: as §2

[13] = system: eight fungal species; assay: checkerboard interaction with azoles, summary across the eight species; format: cell-based
Text: Synergy between lipophilic FPPS inhibitors and azole antifungals was investigated by determining the fractional inhibitory concentration index (FICI) (Fig. 2; Table S1 Fig. S1) ([17]). […]. Derivatives PLA9 and 11, and PDA9, 11, and 12 antagonized azoles in C. albicans, C. neoformans, and C. deuterogattii, yet were largely synergistic in C. glabrata and S. cerevisiae. […].

[14] = system: Trichophyton rubrum; assay: checkerboard drug interaction (FICI, MICc); format: cell-based;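 also: simplified diagonal checkerboard screen pairing azole antifungals with FPPS inhibitors, FICI calculated under the Loewe additivity model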
Description: as §2

[15] = system: Trichophyton rubrum; assay: MIC/MFC broth microdilution (CLSI)
Description: as §3

[16] = system: Aspergillus flavus; assay: checkerboard drug interaction (FICI, MICc); format: cell-based; design: INH MICc (KET:INH) / INH MICc (FLC:INH): unit not given beside the values;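 also: simplified diagonal checkerboard screen pairing azole antifungals with FPPS inhibitors, FICI calculated under the Loewe additivity model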
[17] = system: Saccharomyces cerevisiae; assay: MIC/MFC broth microdilution (CLSI); format: cell-based; details: Saccharomyces cerevisiae S288c
Description: as §3

[18] = system: Candida glabrata; assay: MIC/MFC broth microdilution (CLSI);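 also: broth microdilution following CLSI M27-Ed4, MFC taken as the lowest drug level yielding no growth once MIC wells were subcultured on SDA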
Description: as §3

[19] = system: Candida albicans; assay: MIC/MFC broth microdilution (CLSI); format: cell-based; details: Candida albicans SC5314
Description: as §3

[20] = system: Cryptococcus neoformans; assay: MIC/MFC broth microdilution (CLSI);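 also: susceptibility testing followed the CLSI M27-Ed4 broth microdilution document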
Description: as §3

[21] = system: Cryptococcus deuterogattii; assay: MIC/MFC broth microdilution (CLSI);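 also: broth microdilution per CLSI M27-Ed4. MFC is the lowest concentration yielding no colonies when MIC broths are subcultured onto SDA plates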
Description: as §3

[22] = FLC:INH combination, MIC of the inhibitor in combination with FLC
[23] = ITR:INH combination, MIC of the inhibitor in combination with ITR
[24] = KET:INH combination, MIC of the inhibitor in combination with KET

Compound: CCCCCCCCCCn1cc[n+](CC(O)(P(=O)(O)O)P(=O)(O)O)c1 [10-ZOL, Decyl-zoledronate]
- MIC / MEC [1]: 2 µg/mL
- INH MICc [2, 22]: 0.0625
- INH MICc [2, 23]: 0.25
- INH MICc [2, 24]: 0.125
- bisphosphonate MICc ([2]; with 5FC): 0.5
- bisphosphonate MICc ([2]; with AMB): 0.25
- bisphosphonate MICc ([2]; with CAS): 1
- bisphosphonate MICc ([2]; with FLC): 0.0625
- bisphosphonate MICc ([2]; with ITR): 0.25
- bisphosphonate MICc ([2]; with KET): 0.125
- bisphosphonate MICc ([2]; with VOR): 0.25
- INH MICc [3, 22]: 0.125
- INH MICc [3, 23]: 0.125
- INH MICc [3, 24]: 0.063
- bisphosphonate MICc ([3]; with 5FC): 1
- bisphosphonate MICc ([3]; with AMB): 0.063
- bisphosphonate MICc ([3]; with CAS): 1
- bisphosphonate MICc ([3]; with FLC): 0.125
- bisphosphonate MICc ([3]; with ITR): 0.125
- bisphosphonate MICc ([3]; with KET): 0.063
- bisphosphonate MICc ([3]; with VOR): 0.063
- MIC / MEC [4]: 0.5 µg/mL
- INH MICc [5, 22]: 0.125
- INH MICc [5, 23]: 0.063
- INH MICc [5, 24]: 0.063
- bisphosphonate MICc ([5]; with 5FC): 0.5
- bisphosphonate MICc ([5]; with AMB): 0.25
- bisphosphonate MICc ([5]; with CAS): 0.5
- bisphosphonate MICc ([5]; with FLC): 0.125
- bisphosphonate MICc ([5]; with ITR): 0.063
- bisphosphonate MICc ([5]; with KET): 0.063
- bisphosphonate MICc ([5]; with VOR): 0.25
- MIC / MEC [6]: 2 µg/mL
- FICI ([7]; 5FC:10-ZOL): 2
- FICI ([7]; ITR:10-ZOL): 1
- FLC MICc ([7]; S. cerevisiae, FLC:INH combination, MIC of FLC in combination with the inhibitor): 1
- INH MICc ([7]; S. cerevisiae, FLC:INH combination, MIC of the inhibitor in combination with FLC): 0.5
- FICI ([7]; S. cerevisiae, ITR:INH combination): 1
- ITR MICc ([7]; S. cerevisiae, ITR:INH combination, MIC of ITR in combination with the inhibitor): 0.125
- INH MICc ([7]; S. cerevisiae, ITR:INH combination, MIC of the inhibitor in combination with ITR): 0.5
- KET MICc ([7]; S. cerevisiae, KET:INH combination, MIC of KET in combination with the inhibitor): 0.25
- INH MICc ([7]; S. cerevisiae, KET:INH combination, MIC of the inhibitor in combination with KET): 0.25
- bisphosphonate MICc ([7]; with 5FC): 1
- bisphosphonate MICc ([7]; with AMB): 0.25
- bisphosphonate MICc ([7]; with CAS): 0.063
- bisphosphonate MICc ([7]; with FLC): 0.5
- bisphosphonate MICc ([7]; with ITR): 0.5
- FICI ([7]; with ITR, Saccharomyces cerevisiae): 1.00
- bisphosphonate MICc ([7]; with KET): 0.25
- bisphosphonate MICc ([7]; with VOR): 0.25
- MFC [8]: 4 µg/mL
- MIC [8]: 2 µg/mL
- MIC / MEC [8]: 2 µg/mL
- MFC [9]: 2 µg/mL
- MIC [9]: 1 µg/mL
- MIC / MEC [9]: 1 µg/mL
- FICI ([10]; 5FC:10-ZOL): 3
- FLC MICc ([10]; A. fumigatus, FLC:INH combination, MIC of FLC in combination with the inhibitor): 8
- INH MICc ([10]; A. fumigatus, FLC:INH combination, MIC of the inhibitor in combination with FLC): 0.5
- ITR MICc ([10]; A. fumigatus, ITR:INH combination, MIC of ITR in combination with the inhibitor): 0.063
- INH MICc ([10]; A. fumigatus, ITR:INH combination, MIC of the inhibitor in combination with ITR): 0.063
- KET MICc ([10]; A. fumigatus, KET:INH combination, MIC of KET in combination with the inhibitor): 0.25
- INH MICc ([10]; A. fumigatus, KET:INH combination, MIC of the inhibitor in combination with KET): 0.25
- FICI ([10]; CAS:10-ZOL): 1.5
- bisphosphonate MICc ([10]; with 5FC): 1
- bisphosphonate MICc ([10]; with AMB): 0.25
- bisphosphonate MICc ([10]; with CAS): 1
- bisphosphonate MICc ([10]; with FLC): 0.5
- bisphosphonate MICc ([10]; with ITR): 0.063
- bisphosphonate MICc ([10]; with KET): 0.25
- bisphosphonate MICc ([10]; with VOR): 0.25
- Geometric mean MFC ([11]; across eight species): 4.8 µg/mL
- Geometric mean MIC ([11]; across eight species): 1.2 µg/mL
- MFC ([11]; across eight species, read-out: Geometric mean MFC): 4.8 µg/mL
- range of MICs across the tested fungal species ([11]; eight species): 0.5 to 4 µg/mL
- MIC ([11]; geometric mean across eight species, read-out: GM fungal MIC): 1.2 µg/mL
- MIC ([11]; read-out: Geometric mean MIC): 1.2 µg/mL
- INH MICc [12, 22]: 0.125
- INH MICc [12, 23]: 0.063
- INH MICc [12, 24]: 0.031
- bisphosphonate MICc ([12]; with 5FC): 0.125
- bisphosphonate MICc ([12]; with AMB): 0.25
- bisphosphonate MICc ([12]; with CAS): 0.25
- bisphosphonate MICc ([12]; with FLC): 0.125
- bisphosphonate MICc ([12]; with ITR): 0.063
- bisphosphonate MICc ([12]; with KET): 0.031
- bisphosphonate MICc ([12]; with VOR): 0.03125
- effect on azole MIC in combination ([13]; across all species tested): consistently reduced the MIC of the azole
- antagonism with azole drugs ([13]; any of the azole drugs in any species tested): no antagonism
- GM fungal MICc ([13]; geometric mean MIC in combination with azoles): 0.1
- FICI ([14]; KET:10-ZOL): 0.5
- INH MICc (FLC:INH) ([14]; T. rubrum, MIC of the inhibitor in combination with fluconazole): 0.5
- INH MICc (ITR:INH) ([14]; T. rubrum, MIC of the inhibitor in combination with itraconazole): 0.5
- INH MICc (KET:INH) ([14]; T. rubrum, MIC of the inhibitor in combination with ketoconazole): 0.5
- FICI ([14]; VOR:10-ZOL): 0.5
- bisphosphonate MICc ([14]; with 5FC): 1
- bisphosphonate MICc ([14]; with AMB): 0.25
- bisphosphonate MICc ([14]; with CAS): 0.5
- bisphosphonate MICc ([14]; with FLC): 0.5
- bisphosphonate MICc ([14]; with ITR): 0.5
- bisphosphonate MICc ([14]; with KET): 0.5
- bisphosphonate MICc ([14]; with VOR): 0.5
- MFC ([15]; Trichophyton rubrum): 64 µg/mL
- MIC ([15]; Trichophyton rubrum): 1 µg/mL
- MIC / MEC ([15]; Trichophyton rubrum R-218): 2 µg/mL
- INH MICc (FLC:INH) ([16]; A. flavus, MIC of the inhibitor in combination with fluconazole): 0.063
- INH MICc (ITR:INH) ([16]; A. flavus, MIC of the inhibitor in combination with itraconazole): 0.125
- INH MICc (KET:INH) ([16]; A. flavus, MIC of the inhibitor in combination with ketoconazole): 0.125
- FICI ([16]; AMB:10-ZOL): 2
- FICI ([16]; FLC:10-ZOL): 0.53
- FICI ([16]; VOR:10-ZOL): 0.37
- bisphosphonate MICc ([16]; with 5FC): 1
- bisphosphonate MICc ([16]; with AMB): 2
- bisphosphonate MICc ([16]; with CAS): 2
- bisphosphonate MICc ([16]; with FLC): 0.063
- FICI ([16]; with FLC, Aspergillus flavus): 0.53
- bisphosphonate MICc ([16]; with ITR): 0.125
- bisphosphonate MICc ([16]; with KET): 0.125
- bisphosphonate MICc ([16]; with VOR): 0.5
- MFC [17]: 8 µg/mL
- MIC [17]: 1 µg/mL
- MIC / MEC [17]: 1 µg/mL
- MIC / MEC ([18]; Candida glabrata CBS138 (ATCC 2001)): 0.5 µg/mL
- MFC ([18]; Nakaseomyces glabratus, CBS138): 1 µg/mL
- MIC ([18]; Nakaseomyces glabratus, CBS138): 0.5 µg/mL
- MFC [19]: 16 µg/mL
- MIC [19]: 4 µg/mL
- MIC / MEC [19]: 4 µg/mL
- MFC ([20]; Cryptococcus neoformans): 2 µg/mL
- MIC ([20]; Cryptococcus neoformans): 1 µg/mL
- MIC / MEC ([20]; Cryptococcus neoformans H99): 0.5 µg/mL
- MFC ([21]; Cryptococcus deuterogattii): 2 µg/mL
- MIC ([21]; Cryptococcus deuterogattii): 1 µg/mL
- MIC / MEC ([21]; Cryptococcus deuterogattii R265): 1 µg/mL
